Laboratory results as given in patent US20100048462A1, “TRUNCATED PTH PEPTIDES WITH A CYCLIC CONFORMATION” (Zealand Pharma A/S, priority 2006, published 2010).
Square brackets hold non-standard residues; d marks the D form. Peptide text beside a SMILES is read from it. hArg = N=C(N)NCCCC[C@H](N)C(=O)O; Ac5c = NC1(C(=O)O)CCCC1; Aib = CC(C)(N)C(=O)O

How the values were obtained:
[1] = target: CYP2D6 (Homo sapiens, UniProt P10635); assay: CYP2D6 inhibition in pooled human liver microsomes; type: in vitro ADME; design: Pooled human liver microsomes (HLM, final concentration 0.05 mg protein/mL); tissue BD Biosciences 452161; host or cells: pooled human liver microsomes; settings: 10 μM compound, dextrorphan formation rate
Sequence of CYP2D6 (P10635 whole entry): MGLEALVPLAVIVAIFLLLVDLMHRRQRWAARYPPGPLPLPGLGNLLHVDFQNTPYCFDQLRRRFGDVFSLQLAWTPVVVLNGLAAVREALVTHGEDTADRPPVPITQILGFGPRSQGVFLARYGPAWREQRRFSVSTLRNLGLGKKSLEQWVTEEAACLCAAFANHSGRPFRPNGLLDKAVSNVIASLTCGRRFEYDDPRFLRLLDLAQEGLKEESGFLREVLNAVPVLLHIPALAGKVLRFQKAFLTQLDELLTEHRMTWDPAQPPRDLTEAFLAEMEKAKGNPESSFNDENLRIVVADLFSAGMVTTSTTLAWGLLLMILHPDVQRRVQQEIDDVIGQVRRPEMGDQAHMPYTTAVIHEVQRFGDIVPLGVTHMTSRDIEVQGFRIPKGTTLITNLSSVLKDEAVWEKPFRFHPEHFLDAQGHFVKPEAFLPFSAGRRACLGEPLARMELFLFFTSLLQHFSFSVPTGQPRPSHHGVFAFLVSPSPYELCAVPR
Method in brief: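 Pooled HLM (0.05 mg/mL) in 0.1 M KPi pH 7.4 with 5 μM dextromethorphan and 10 μM test compound, preincubated 5 min at 37 °C, then started with NADPH-regenerating system for 5 min. Dextrorphan quantified by LC/MS/MS; activity expressed as % of vehicle; <70% considered significant.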

[2] = target: T1, Saos-2 PTH1R (Homo sapiens, UniProt Q03431); assay: cAMP-efficacy assay in Saos-2 cells; type: cell-based
T1 construct: endogenous in cells; host or cells: Saos-2
T1 sequence (Q03431 27-593): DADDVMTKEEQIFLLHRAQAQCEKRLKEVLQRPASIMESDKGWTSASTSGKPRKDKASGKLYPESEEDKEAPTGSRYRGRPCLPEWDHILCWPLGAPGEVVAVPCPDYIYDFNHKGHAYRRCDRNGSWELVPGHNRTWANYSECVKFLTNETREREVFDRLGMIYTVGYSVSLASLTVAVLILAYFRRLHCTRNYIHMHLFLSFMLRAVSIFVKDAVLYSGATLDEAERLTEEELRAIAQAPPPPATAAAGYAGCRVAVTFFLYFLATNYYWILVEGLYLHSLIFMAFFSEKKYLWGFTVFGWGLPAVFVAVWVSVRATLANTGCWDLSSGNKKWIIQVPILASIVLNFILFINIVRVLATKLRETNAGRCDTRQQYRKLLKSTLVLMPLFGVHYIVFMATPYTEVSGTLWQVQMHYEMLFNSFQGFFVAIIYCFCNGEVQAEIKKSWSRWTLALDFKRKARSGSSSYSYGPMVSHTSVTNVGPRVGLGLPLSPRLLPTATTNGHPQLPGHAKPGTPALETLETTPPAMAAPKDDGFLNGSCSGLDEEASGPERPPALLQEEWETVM
Method in brief: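 cAMP accumulation was assayed by FlashPlate after 15 min peptide stimulation at 37 °C of Saos-2 cells in Tyrode's buffer containing 100 μM IBMX and 0.1% BSA, with the reaction stopped by ice-cold HCl. Variable-slope logistic fitting gave EC50/pEC50, Hill coefficient and Emax, with single or triplicate points.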

[3] = target: T2, PTH receptor 1 (Mus musculus, UniProt P41593); assay: MC3T3-E1 cAMP efficacy assay; type: cell-based, murine; settings: MC3T3-E1 cells
T2 construct: host or cells: MC3T3-E1 subclone 4
T2 sequence (P41593 27-591): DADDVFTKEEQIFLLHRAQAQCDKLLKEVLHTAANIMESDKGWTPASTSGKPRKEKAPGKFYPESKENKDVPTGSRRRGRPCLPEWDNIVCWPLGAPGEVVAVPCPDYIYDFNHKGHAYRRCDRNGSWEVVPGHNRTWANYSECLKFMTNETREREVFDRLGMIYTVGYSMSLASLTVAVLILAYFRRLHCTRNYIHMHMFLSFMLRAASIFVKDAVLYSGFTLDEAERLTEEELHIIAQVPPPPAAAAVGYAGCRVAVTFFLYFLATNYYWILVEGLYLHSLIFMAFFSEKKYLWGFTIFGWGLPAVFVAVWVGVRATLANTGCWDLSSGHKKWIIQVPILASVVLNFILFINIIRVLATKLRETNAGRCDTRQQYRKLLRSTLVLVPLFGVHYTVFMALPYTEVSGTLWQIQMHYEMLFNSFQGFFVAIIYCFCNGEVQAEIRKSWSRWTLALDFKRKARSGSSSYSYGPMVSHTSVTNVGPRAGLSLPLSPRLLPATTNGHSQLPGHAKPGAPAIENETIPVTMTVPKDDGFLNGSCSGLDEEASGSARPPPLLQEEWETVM
Procedure: MC3T3-E1 cells were seeded at 10,000 cells/well in 96-microtiter plates and grown overnight before the efficacy assays. On the day of analysis the growth medium was carefully removed by suction. Cells were washed once with 200 μl TB/0.1% […]. The buffer was replaced with 100 μl reaction mixture (±test peptide, +100 μM IBMX) and incubated at 37° C. for 13 min. The reaction was stopped by addition of 25 μl of ice-cold 0.5 M HCl. Cells were in the following incubated on ice for 60 min. 75 μl acetate-buffer were added to each well in a 96-well cAMP FlashPlate. […] FlashPlates were incubated overnight at 4° C., emptied by suction and counted in a TopCounter.
Determinations were performed in triplicates at all doses. Standards were included as single determinations, duplicates or triplicates in each experiment, preferentially on each plate.
Efficacy was evaluated in the concentration range from […].
Concentration-dependent cAMP responses were imported into GraphPad Prism vers. 4, transformed and plotted. Curves were fitted with a function for sigmoidal dose response curve non-linear fit Y=Bottom+(Top-Bottom)/(1+10̂((LogEC50-X))) where X is the logarithm of concentration and Y is the response. Y starts at Bottom and goes to Top with a sigmoid shape. pEC50 and the maximally inducible concentration of cAMP were evaluated. Overall statistical differences were analyzed using one-way ANOVA. Post-hoc comparisons were made by the use of Fisher's Least Significance Test. Results were considered significant, when p was lower than 0.05.

[4] = tested on: ovariectomized rats; settings: cited from earlier work; for bone-anabolic activity: ovariectomized rats
[5] = target: T3, PTH1R (Homo sapiens, UniProt Q03431); settings: cited from earlier work
T3 sequence (Q03431 27-593): T1 sequence (Q03431 27-593)

Molecule: CC[C@H](C)[C@H](NC(=O)[C@H](CCC(=O)O)NC(=O)C(C)(C)NC(=O)[C@@H](NC(=O)C1(N)CCCC1)C(C)C)C(=O)N[C@@H](CCC(N)=O)C(=O)N[C@@H](CC(C)C)C(=O)N[C@@H](CCSC)C(=O)N[C@@H](Cc1c[nH]cn1)C(=O)N[C@@H](CCC(N)=O)C(=O)N[C@@H](CCCCNC(=N)N)C(=O)N[C@@H](C)C(=O)N[C@@H](CCCCN)C(=O)N[C@@H](Cc1c[nH]c2ccccc12)C(=O)N[C@@H](CC(C)C)C(=O)N[C@@H](CC(N)=O)C(=O)N[C@@H](CC(=O)O)C(N)=O [SEQ ID NO: 42, H-Ac5c-Val-Aib-Glu-Ile-Gln-Leu-Met-His-Gln-Har-Ala-Lys-Trp-Leu-Asn-Asp-NH2] (H-[Ac5c]V[Aib]EIQLMHQ[hArg]AKWLND-NH2)
- CYP2D6 activity (% of vehicle) ([1]; listed as 42): 29 % of vehicle
- CYP2D6 activity (% of vehicle) ([1]; listed as SEQ ID NO:42): 29 % of vehicle
- EC50 ([2]; cAMP, 100 μM IBMX, 37° C. 15 min, suffix of label = salt tested): 20.9 nM
- Emax ± SEM ([2]; relative effect to the control (SEQ ID NO: 32)): 1.03 ± 0.07
- EC50 ([3]; cAMP, 100 μM IBMX, 37° C.): 6.31 nM
- Emax ± SEM [pmol/well] ([3]; maximally inducible cAMP): 5.7 ± 1.0 pmol/well

Molecule: PTH(1-29): truncated PTH fragment from the literature (Murrills et al. 2004) (SVSEIQLMHNLGKHLNSMERVEWLRKKLQ; Parathyroid hormone; UniProt P01270 32-60, looked up, fragment)
- bone-anabolic activity, fold less potent than PTH(1-34) ([4]; ovariectomized rat model): approximately 20 fold

Molecule: [Aib^1.3, Phe^7, Nle^8, Arg^11, Ala^12, Trp^14]PTH(1-14)
- bone-anabolic activity [4]: did not exhibit any bone-anabolic activity
- activation of the PTH1R in vitro [5]: activated the PTH1R in vitro

Molecule: [Ala^1.3, Nle^8, Gln^10, Har^11, Trp^14, Arg^19, Tyr^21]rPTH(1-21) [MPTH(1-21)]
- bone-anabolic activity [4]: inactive
